Assays:
Assay type in all cases: in vivo
[1] = system: barnyardgrass (Echinochloa crus-galli); assay: Test A pre-/postemergence: barnyardgrass; details: for Barnyardgrass plant response rating: Postemergence; for Plant response rating, Barnyardgrass: Preemergence
Summary of the method: (§1)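 Soil medium was loam blended with sand; treatments pre- and postemergence were applied concurrently, postemergence at one- to two-leaf stage. Approximately ten days in greenhouse preceded visual comparison with untreated controls, scored 0 (no effect) to 100 (complete control).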

[2] = system: crabgrass, large (large crabgrass, Digitaria sanguinalis); assay: Test A pre-/postemergence: crabgrass, large; details: for Crabgrass, Large plant response rating: Postemergence; for Plant response rating, Crabgrass, Large: Preemergence
Summary of the method: as §1

[3] = system: foxtail, giant (giant foxtail, Setaria faberii); assay: Test A pre-/postemergence: foxtail, giant; details: for Foxtail, Giant plant response rating: Postemergence; for Plant response rating, Foxtail, Giant: Preemergence
Summary of the method: as §1

[4] = system: morningglory (Ipomoea spp.); assay: Test A pre-/postemergence: morningglory; details: for Morningglory plant response rating: Postemergence; for Plant response rating, Morningglory: Preemergence
Summary of the method: as §1

[5] = system: pigweed (Amaranthus retroflexus); assay: Test A pre-/postemergence: pigweed; details: for Pigweed plant response rating: Postemergence; for Plant response rating, Pigweed: Preemergence
Summary of the method: as §1

[6] = system: velvetleaf (Abutilon theophrasti); assay: Test A pre-/postemergence: velvetleaf; details: for Velvetleaf plant response rating: Postemergence; for Plant response rating, Velvetleaf: Preemergence
Summary of the method: as §1

[7] = system: wheat (Triticum aestivum); assay: Test A pre-/postemergence: wheat; details: for Wheat plant response rating: Postemergence; for Plant response rating, Wheat: Preemergence
Summary of the method: as §1

corn (Zea mays) = assay: Test A pre-/postemergence: corn; details: for Corn plant response rating: Postemergence; for Plant response rating, Corn: Preemergence
Summary of the method: as §1

rice (Oryza sativa) = assay: Test C flooded paddy test: rice; details: scale 0 to 100 (0 no effect, 100 complete control)
Summary of the method: (§2)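 Plants at 2-leaf stage in pots flooded 3 cm above soil; compounds applied directly into the paddy water, depth maintained. Visual rating against controls after 13–15 days in greenhouse, scale 0 (no effect) to 100 (complete control).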

[8] = system: sedge, umbrella (small-flower umbrella sedge, Cyperus difformis); assay: Test C flooded paddy test: sedge, umbrella; details: scale 0 to 100 (0 no effect, 100 complete control)
Summary of the method: as §2

[9] = system: ducksalad (Heteranthera limosa); assay: Test C flooded paddy test: ducksalad; details: scale 0 to 100 (0 no effect, 100 complete control)
Summary of the method: as §2

[10] = system: barnyardgrass (Echinochloa crus-galli); assay: Test C flooded paddy test: barnyardgrass; details: scale 0 to 100 (0 no effect, 100 complete control)
Summary of the method: as §2

[11] = 125 g ai/ha, 0 to 100 scale, 0 is no effect, 100 is complete control
[12] = 500 g ai/ha, visual rating on 0 to 100 scale (0 no effect, 100 complete control), approximately ten days
[13] = 125 g ai/ha, 0 to 100 scale (0 no effect, 100 complete control)
[14] = 500 g ai/ha, 0 to 100 scale, 0 is no effect, 100 is complete control
[15] = Flood (flooded paddy test), 62 g ai/ha, visual rating after 13 to 15 days
[16] = Flood (flooded paddy test), 250 g ai/ha, visual rating after 13 to 15 days
[17] = Flood (flooded paddy test), 125 g ai/ha, visual rating after 13 to 15 days

Cc1nn(-c2ccc(C(F)(F)F)cc2)nc1Oc1cncc(C(F)(F)F)c1 [Compound 37]
Barnyardgrass plant response rating [1, 11]: 10
Barnyardgrass plant response rating [1, 12]: 20
Plant response rating, Barnyardgrass [1, 13]: 30
Plant response rating, Barnyardgrass [1, 14]: 90
Crabgrass, Large plant response rating [2, 11]: 20
Crabgrass, Large plant response rating [2, 12]: 70
Plant response rating, Crabgrass, Large [2, 13]: 90
Plant response rating, Crabgrass, Large [2, 14]: 100
Foxtail, Giant plant response rating [3, 11]: 30
Foxtail, Giant plant response rating [3, 12]: 80
Plant response rating, Foxtail, Giant [3, 13]: 90
Plant response rating, Foxtail, Giant [3, 14]: 100
Morningglory plant response rating [4, 11]: 20
Morningglory plant response rating [4, 12]: 90
Plant response rating, Morningglory [4, 13]: 0
Plant response rating, Morningglory [4, 14]: 20
Pigweed plant response rating [5, 11]: 80
Pigweed plant response rating [5, 12]: 100
Plant response rating, Pigweed [5, 13]: 70
Plant response rating, Pigweed [5, 14]: 100
Velvetleaf plant response rating [6, 11]: 20
Velvetleaf plant response rating [6, 12]: 50
Plant response rating, Velvetleaf [6, 13]: 0
Plant response rating, Velvetleaf [6, 14]: 10
Wheat plant response rating [7, 11]: 0
Wheat plant response rating [7, 12]: 10
Plant response rating, Wheat [7, 13]: 0
Plant response rating, Wheat [7, 14]: 0
Corn plant response rating (corn (Zea mays); [11]): 10
Corn plant response rating (corn (Zea mays); [12]): 20
Plant response rating, Corn (corn (Zea mays); [13]): 0
Plant response rating, Rice (rice (Oryza sativa); [15]): 10
Plant response rating, Rice (rice (Oryza sativa); [16]): 20
Plant response rating, Sedge, Umbrella [8, 15]: 0
Plant response rating, Sedge, Umbrella [8, 16]: 0
Plant response rating, Ducksalad [9, 15]: 0
Plant response rating, Ducksalad [9, 16]: 70
Plant response rating, Barnyardgrass [10, 15]: 10
Plant response rating, Barnyardgrass [10, 16]: 35

Cc1nn(-c2ccc(C(F)(F)F)cc2)nc1Oc1ccnc(OC(F)F)c1 [Compound 48]
Barnyardgrass plant response rating [1, 11]: 10
Barnyardgrass plant response rating [1, 12]: 30
Plant response rating, Barnyardgrass [1, 13]: 0
Plant response rating, Barnyardgrass [1, 14]: 30
Crabgrass, Large plant response rating [2, 11]: 50
Crabgrass, Large plant response rating [2, 12]: 90
Plant response rating, Crabgrass, Large [2, 13]: 30
Plant response rating, Crabgrass, Large [2, 14]: 100
Foxtail, Giant plant response rating [3, 11]: 30
Foxtail, Giant plant response rating [3, 12]: 70
Plant response rating, Foxtail, Giant [3, 13]: 40
Plant response rating, Foxtail, Giant [3, 14]: 100
Morningglory plant response rating [4, 11]: 10
Morningglory plant response rating [4, 12]: 90
Plant response rating, Morningglory [4, 13]: 0
Plant response rating, Morningglory [4, 14]: 20
Pigweed plant response rating [5, 11]: 100
Pigweed plant response rating [5, 12]: 100
Plant response rating, Pigweed [5, 13]: 40
Plant response rating, Pigweed [5, 14]: 90
Velvetleaf plant response rating [6, 11]: 30
Velvetleaf plant response rating [6, 12]: 50
Plant response rating, Velvetleaf [6, 13]: 0
Plant response rating, Velvetleaf [6, 14]: 0
Wheat plant response rating [7, 11]: 10
Wheat plant response rating [7, 12]: 20
Plant response rating, Wheat [7, 13]: 0
Plant response rating, Wheat [7, 14]: 0
Corn plant response rating (corn (Zea mays); [11]): 10
Corn plant response rating (corn (Zea mays); [12]): 30
Plant response rating, Corn (corn (Zea mays); [13]): 0
Plant response rating, Corn (corn (Zea mays); [14]): 0
Plant response rating, Rice (rice (Oryza sativa); [15]): 10
Plant response rating, Rice (rice (Oryza sativa); [16]): 20
Plant response rating, Sedge, Umbrella [8, 15]: 0
Plant response rating, Sedge, Umbrella [8, 16]: 45
Plant response rating, Ducksalad [9, 15]: 20
Plant response rating, Ducksalad [9, 16]: 65
Plant response rating, Barnyardgrass [10, 15]: 10
Plant response rating, Barnyardgrass [10, 16]: 30

Cc1nn(-c2ccnc(C(F)(F)F)c2)nc1C(=O)c1cccc(C(F)(F)F)c1 [Compound 49]
Barnyardgrass plant response rating [1, 11]: 10
Barnyardgrass plant response rating [1, 12]: 20
Plant response rating, Barnyardgrass [1, 13]: 10
Plant response rating, Barnyardgrass [1, 14]: 30
Crabgrass, Large plant response rating [2, 11]: 60
Crabgrass, Large plant response rating [2, 12]: 90
Plant response rating, Crabgrass, Large [2, 13]: 80
Plant response rating, Crabgrass, Large [2, 14]: 100
Foxtail, Giant plant response rating [3, 11]: 30
Foxtail, Giant plant response rating [3, 12]: 60
Plant response rating, Foxtail, Giant [3, 13]: 80
Plant response rating, Foxtail, Giant [3, 14]: 100
Morningglory plant response rating [4, 11]: 20
Morningglory plant response rating [4, 12]: 50
Plant response rating, Morningglory [4, 13]: 0
Plant response rating, Morningglory [4, 14]: 10
Pigweed plant response rating [5, 11]: 80
Pigweed plant response rating [5, 12]: 100
Plant response rating, Pigweed [5, 13]: 60
Plant response rating, Pigweed [5, 14]: 100
Velvetleaf plant response rating [6, 11]: 30
Velvetleaf plant response rating [6, 12]: 60
Plant response rating, Velvetleaf [6, 13]: 0
Plant response rating, Velvetleaf [6, 14]: 10
Wheat plant response rating [7, 11]: 10
Wheat plant response rating [7, 12]: 20
Plant response rating, Wheat [7, 13]: 10
Plant response rating, Wheat [7, 14]: 20
Corn plant response rating (corn (Zea mays); [11]): 10
Corn plant response rating (corn (Zea mays); [12]): 20
Plant response rating, Corn (corn (Zea mays); [13]): 0
Plant response rating, Corn (corn (Zea mays); [14]): 10
Plant response rating, Rice (rice (Oryza sativa); [15]): 0
Plant response rating, Rice (rice (Oryza sativa); [17]): 0
Plant response rating, Rice (rice (Oryza sativa); [16]): 0
Plant response rating, Rice (rice (Oryza sativa); Flood, 31 g ai/ha): 0
Plant response rating, Sedge, Umbrella [8, 15]: 0
Plant response rating, Sedge, Umbrella [8, 17]: 70
Plant response rating, Sedge, Umbrella [8, 16]: 75
Plant response rating, Sedge, Umbrella ([8]; Flood, 31 g ai/ha): 0
Plant response rating, Ducksalad [9, 15]: 0
Plant response rating, Ducksalad [9, 17]: 30
Plant response rating, Ducksalad [9, 16]: 40
Plant response rating, Ducksalad ([9]; Flood, 31 g ai/ha): 0
Plant response rating, Barnyardgrass [10, 15]: 0
Plant response rating, Barnyardgrass [10, 17]: 10
Plant response rating, Barnyardgrass [10, 16]: 15
Plant response rating, Barnyardgrass ([10]; Flood, 31 g ai/ha): 0

Cc1nn(-c2nc(Cl)ns2)nc1C(=O)c1cccc(C(F)(F)F)c1 [Compound 59]
Barnyardgrass plant response rating [1, 11]: 0
Barnyardgrass plant response rating [1, 12]: 0
Plant response rating, Barnyardgrass [1, 13]: 0
Plant response rating, Barnyardgrass [1, 14]: 0
Crabgrass, Large plant response rating [2, 11]: 0
Crabgrass, Large plant response rating [2, 12]: 0
Plant response rating, Crabgrass, Large [2, 13]: 0
Plant response rating, Crabgrass, Large [2, 14]: 0
Foxtail, Giant plant response rating [3, 11]: 0
Foxtail, Giant plant response rating [3, 12]: 0
Plant response rating, Foxtail, Giant [3, 13]: 0
Plant response rating, Foxtail, Giant [3, 14]: 0
Morningglory plant response rating [4, 11]: 0
Morningglory plant response rating [4, 12]: 0
Plant response rating, Morningglory [4, 13]: 0
Plant response rating, Morningglory [4, 14]: 0
Pigweed plant response rating [5, 11]: 0
Pigweed plant response rating [5, 12]: 0
Plant response rating, Pigweed [5, 13]: 0
Plant response rating, Pigweed [5, 14]: 0
Velvetleaf plant response rating [6, 11]: 0
Velvetleaf plant response rating [6, 12]: 0
Plant response rating, Velvetleaf [6, 13]: 0
Plant response rating, Velvetleaf [6, 14]: 0
Wheat plant response rating [7, 11]: 0
Wheat plant response rating [7, 12]: 0
Plant response rating, Wheat [7, 13]: 0
Plant response rating, Wheat [7, 14]: 0
Corn plant response rating (corn (Zea mays); [11]): 0
Corn plant response rating (corn (Zea mays); [12]): 0
Plant response rating, Corn (corn (Zea mays); [13]): 0
Plant response rating, Corn (corn (Zea mays); [14]): 0
Plant response rating, Rice (rice (Oryza sativa); [15]): 0
Plant response rating, Rice (rice (Oryza sativa); [17]): 0
Plant response rating, Rice (rice (Oryza sativa); [16]): 0
Plant response rating, Rice (rice (Oryza sativa); Flood, 31 g ai/ha): 0
Plant response rating, Sedge, Umbrella [8, 15]: 0
Plant response rating, Sedge, Umbrella [8, 17]: 0
Plant response rating, Sedge, Umbrella [8, 16]: 0
Plant response rating, Sedge, Umbrella ([8]; Flood, 31 g ai/ha): 0
Plant response rating, Ducksalad [9, 15]: 0
Plant response rating, Ducksalad [9, 17]: 0
Plant response rating, Ducksalad [9, 16]: 0
Plant response rating, Ducksalad ([9]; Flood, 31 g ai/ha): 0
Plant response rating, Barnyardgrass [10, 15]: 0
Plant response rating, Barnyardgrass [10, 17]: 0
Plant response rating, Barnyardgrass [10, 16]: 0
Plant response rating, Barnyardgrass ([10]; Flood, 31 g ai/ha): 0
